Values quoted from earlier work as cited in patent US20250295646A1, “METHODS OF USE OF T-TYPE CALCIUM CHANNEL MODULATORS” (Praxis Precision Medicines, Inc., priority 2022, published 2025).

Details: WO 2020/072773, cited from earlier work

Structure (SMILES): CC(C)c1ccc(CC(=O)N[C@H](C)c2ccc(OCC(F)(F)F)cn2)cc1 [CX-8998]
- discontinuation due to intolerability of adverse events (28-day essential tremor study): 17%
- discontinuation rate (28-day essential tremor study): 23%
- tolerability of doses of 20 and 24 mg: less well tolerated
- single doses generally well tolerated (non-titrated): up to 16 mg
